Reference: patent publication US9670261B2 (Sanofi, priority 2012, dated 2017)

What was measured:
[1] = molecular target: T1, human GIP receptor (Homo sapiens, UniProt P48546); experiment: cAMP response (HTRF) of HEK-293 cells stably expressing human GIP receptor; type: cell-based; conditions: Table 7; cAMP formation; read-out: EC50 hGIP R
T1 construct: expressed in transfected cells
T1 sequence (P48546 22-466): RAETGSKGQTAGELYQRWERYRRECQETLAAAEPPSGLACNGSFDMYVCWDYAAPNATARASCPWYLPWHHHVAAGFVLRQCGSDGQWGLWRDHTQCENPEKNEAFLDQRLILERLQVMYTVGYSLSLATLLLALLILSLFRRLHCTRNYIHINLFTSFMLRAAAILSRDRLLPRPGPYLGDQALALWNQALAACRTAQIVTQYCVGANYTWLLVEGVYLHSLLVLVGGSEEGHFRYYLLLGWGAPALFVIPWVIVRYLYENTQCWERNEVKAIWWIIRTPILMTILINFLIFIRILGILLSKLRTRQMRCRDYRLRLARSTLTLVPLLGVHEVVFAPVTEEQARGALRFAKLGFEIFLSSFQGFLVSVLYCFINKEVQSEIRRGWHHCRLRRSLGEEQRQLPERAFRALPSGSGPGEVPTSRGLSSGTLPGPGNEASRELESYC
Method in brief: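 cAMP accumulation was read by homogeneous time-resolved fluorescence after 30 min compound exposure at room temperature. Stable receptor-expressing HEK-293 cells, 400000 cells/ml, were used in HEPES-buffered HBSS containing 0.1% BSA and the phosphodiesterase inhibitor IBMX (2 mM).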

[2] = test system: female NMRI-mice; experiment: Automated assessment of 22-hours feed intake in mice; type: in vivo; conditions: 0.1 mg/kg s.c.
Description: Female NMRI-mice of a body weight between 20 and 30 g were used. Mice were adapted to housing conditions for at least one week and for at least one day single-caged in the assessment equipment, when basal data were recorded simultaneously. On the study day, test product was administered subcutaneously close to the lights-off phase (12 h lights off) and assessment of feed consumption was directly started afterwards. Assessment included continued monitoring over 22 hours, while data are processed as mean over every 30 min. Repetition of this procedure over several days was possible. Restriction of assessment to 22 hours was for practical reasons to allow for reweighing of animals, refilling of feed and water and drug administration between procedures. Results could be assessed as cumulated data over 22 hours or differentiated to 30 min intervals. […] Statistical analyses were performed with Everstat 6.0 by two-way ANOVA on repeated measures and Dunnett's post-hoc analyses. Differences were considered statistically significant at the p<0.05 level. […] Lights-off phase (dark phase) started 4 hours later. […].

[3] = test system: female leptin-receptor deficient diabetic db/db mice; experiment: Blood glucose and HbA1c in leptin-receptor deficient diabetic db/db mice (method 3); type: in vivo; conditions: single 100 μg/kg s.c., fed db/db mice
Text: Female BKS.Cg-m+/+Leprdb/J (db/db) and BKS.Cg-m+/+Leprdb/+(lean control) mice were obtained from Charles River Laboratories, Germany, at an age of 9-10 weeks. The animals were housed in groups in a specific pathogen-free barrier facility on a 12-h light/dark cycle with free access to water and rodent-standard chow. After 1 week of acclimatization, blood samples were drawn from the tail without anaesthesia and blood glucose (method: d-glucose hexokinase, hemolysate, AU640 Beckman Coulter) and HbA1c level (method: hemolysate, Cobas6000 c501, Roche Diagnostics, Germany) were determined. […] The volume of administration was 5 mL/kg. The animals had access to water and chow during the experiment, food consumption was determined at all time points of blood sampling. […] Blood sampling was performed by tail incision without anaesthesia. […] At the end of the study, blood samples (tail, no anaesthesia) were analyzed for glucose and HbA1c. […] Statistical analyses were performed with Everstat 6.0 by repeated measures two-way ANOVA and Dunnett's post-hoc analyses. Differences versus vehicle-treated db/db control mice were considered statistically significant at the p<0.05 level. […] At predefined time points, more blood samples were taken to measure blood glucose and generate the blood glucose profile over 24 h. […] Blood glucose and HbA1c were determined before start of treatment and at the end of the study after 4 weeks of treatment. […] Before treatment started, no significant differences in blood glucose levels could be detected between db/db groups, only the lean control animals had significant lower glucose levels. During the 4 weeks of treatment, glucose levels increased in the vehicle-treated db/db control group, indicating a worsening of the diabetic situation.

[4] = in vivo; conditions: mouse, sc, 1 mg/kg
Description: Mice were dosed 1 mg/kg subcutaneously (s.c.). The mice were sacrified and blood samples were collected after 0.25, 0.5, 1, 2, 4, 8, 16 and 24 hours post application. Plasma samples were analyzed after protein precipitation via liquid chromatography mass spectrometry (LC/MS). PK parameters and half-life were calculated using WinonLin Version 5.2.1 (non-compartment model).

[5] = physchem

Compound: CCCCCCCCCCCCCCCC(=O)N[C@@H](CCC(=O)NCCCC[C@H](NC(=O)[C@H](CCC(N)=O)NC(=O)[C@@H](NC(=O)[C@H](CO)NC(=O)[C@H](CC(C)C)NC(=O)[C@H](CC(=O)O)NC(=O)[C@H](CO)NC(=O)[C@@H](NC(=O)[C@H](Cc1ccccc1)NC(=O)[C@@H](NC(=O)CNC(=O)[C@H](CCC(=O)O)NC(=O)C(C)(C)NC(=O)[C@@H](N)Cc1ccc(O)cc1)[C@@H](C)O)[C@@H](C)O)[C@@H](C)CC)C(=O)N[C@@H](CC(=O)O)C(=O)N[C@@H](CCCCN)C(=O)N[C@@H](CCCNC(=N)N)C(=O)N[C@@H](C)C(=O)N[C@@H](C)C(=O)N[C@@H](CCC(N)=O)C(=O)N[C@@H](CC(=O)O)C(=O)N[C@@H](Cc1ccccc1)C(=O)N[C@H](C(=O)N[C@@H](CCC(=O)O)C(=O)N[C@@H](Cc1c[nH]c2ccccc12)C(=O)N[C@@H](CC(C)C)C(=O)N[C@@H](CCCCN)C(=O)N[C@@H](CC(N)=O)C(=O)NCC(=O)NCC(=O)N1CCC[C@H]1C(=O)N[C@@H](CO)C(=O)N[C@@H](CO)C(=O)NCC(=O)N[C@@H](C)C(=O)N1CCC[C@H]1C(=O)N1CCC[C@H]1C(=O)N1CCC[C@H]1C(=O)N[C@@H](CO)C(N)=O)[C@@H](C)CC)C(=O)O [SEQ ID NO: 12, Y-Aib-E-G-T-F-T-S-D-L-S-I-Q-K(γE-x53)-DKRAAQDFIEWLKNGGPSSGAPPPS-NH2]
- EC50 [1]: 8.9 pM
- reduction of feed intake after 22 hours [2]: 71%
- blood glucose compared to db/db control mice, 24 h profile [3]: significant decrease in blood glucose
- Cmax [4]: 3790 ng/mL
- half-life [4]: 2.8 h
- solubility at 2 h ([5]; pH 4.5): > 1000 µg/mL
- solubility at 2 h ([5]; pH 7.4): > 1000 µg/mL
